From PubChem BioAssay AID1918994 (Molecular Pharmacology Branch, DTP, NCI, 2023)
Values belong to the compound of their own block, whether it stands above or below them.

Tested on: 292921-168-R-J2-PDC complex spheroid growth
Assay: Anticancer human tumor 292921-168-R-J2-PDC patient-derived pancreatic carcinoma cell line growth inhibition [AhR]
Settings: for IC50: curve of first compound; for viability, T/C: stronger effect = lower value
Outline: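 Spheroids combined tumor cells with HUVEC endothelial cells and human MSCs as stroma. AhR antagonists were paired with standard or investigational drugs, each dosed in half-log steps down from near clinical Cmax, or from 10 microM where Cmax was unknown.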

[1] = second compound 0.1 µM, first compound 0.0316 µM
[2] = second compound 0.1 µM, first compound 0.1 µM
[3] = second compound 0.1 µM, first compound 0.316 µM
[4] = second compound 0.1 µM, first compound 1 µM
[5] = second compound 0.1 µM, first compound 3.16 µM
[6] = second compound 0.1 µM, first compound 10 µM
[7] = second compound 0.316 µM, first compound 0.0316 µM
[8] = second compound 0.316 µM, first compound 0.1 µM
[9] = second compound 0.316 µM, first compound 0.316 µM
[10] = second compound 0.316 µM, first compound 1 µM
[11] = second compound 0.316 µM, first compound 3.16 µM
[12] = second compound 0.316 µM, first compound 10 µM
[13] = second compound 1 µM, first compound 0.0316 µM
[14] = second compound 1 µM, first compound 0.1 µM
[15] = second compound 1 µM, first compound 0.316 µM
[16] = second compound 1 µM, first compound 1 µM
[17] = second compound 1 µM, first compound 3.16 µM
[18] = second compound 1 µM, first compound 10 µM
[19] = second compound 3.16 µM, first compound 0.0316 µM
[20] = second compound 3.16 µM, first compound 0.1 µM
[21] = second compound 3.16 µM, first compound 0.316 µM
[22] = second compound 3.16 µM, first compound 1 µM
[23] = second compound 3.16 µM, first compound 3.16 µM
[24] = second compound 3.16 µM, first compound 10 µM
[25] = second compound 10 µM, first compound 0.0316 µM
[26] = second compound 10 µM, first compound 0.1 µM
[27] = second compound 10 µM, first compound 0.316 µM
[28] = second compound 10 µM, first compound 1 µM
[29] = second compound 10 µM, first compound 3.16 µM
[30] = second compound 10 µM, first compound 10 µM
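Also: spheroids exposed to compounds for seven days after three days of growth.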

Structure (SMILES): CC1COCCN1c1cc(C2(S(C)(=N)=O)CC2)nc(-c2ccnc3[nH]ccc23)n1 (stereo not given) + Cc1ccccc1N=Nc1ccc(NC(=O)c2ccnn2C)c(C)c1
IC50 (second compound 0.1 µM): 2.76 µM
IC50 (second compound 0.316 µM): 2.52 µM
IC50 (second compound 1 µM): 2.08 µM
IC50 (second compound 3.16 µM): 1.81 µM
IC50 (second compound 10 µM): 1.48 µM
viability, T/C [1]: 89.7%
viability, T/C [2]: 96%
viability, T/C [3]: 93.9%
viability, T/C [4]: 83.1%
viability, T/C [5]: 45.6%
viability, T/C [6]: 21%
viability, T/C [7]: 98.8%
viability, T/C [8]: 84.3%
viability, T/C [9]: 88.3%
viability, T/C [10]: 79.5%
viability, T/C [11]: 42.6%
viability, T/C [12]: 24.4%
viability, T/C [13]: 86.4%
viability, T/C [14]: 83.7%
viability, T/C [15]: 85.4%
viability, T/C [16]: 69.8%
viability, T/C [17]: 38.6%
viability, T/C [18]: 19.2%
viability, T/C [19]: 80%
viability, T/C [20]: 78.8%
viability, T/C [21]: 68%
viability, T/C [22]: 65.6%
viability, T/C [23]: 37.4%
viability, T/C [24]: 16.7%
viability, T/C [25]: 66.9%
viability, T/C [26]: 55.7%
viability, T/C [27]: 58.2%
viability, T/C [28]: 58.3%
viability, T/C [29]: 34.3%
viability, T/C [30]: 21.5%

Structure (SMILES): O=C(C=Cn1cnc(-c2cc(C(F)(F)F)cc(C(F)(F)F)c2)n1)NNc1cnccn1 + Cc1ccccc1N=Nc1ccc(NC(=O)c2ccnn2C)c(C)c1
IC50 (second compound 0.1 µM): 0.194 µM
IC50 (second compound 0.316 µM): 0.126 µM
IC50 (second compound 1 µM): 0.115 µM
IC50 (second compound 3.16 µM): 0.0764 µM
IC50 (second compound 10 µM): 0.0291 µM
viability, T/C (second compound 0.1 µM, first compound 0.00949 µM): 88.1%
viability, T/C (second compound 0.1 µM, first compound 0.03 µM): 84.6%
viability, T/C (second compound 0.1 µM, first compound 0.0949 µM): 75.5%
viability, T/C (second compound 0.1 µM, first compound 0.3 µM): 34.5%
viability, T/C (second compound 0.1 µM, first compound 0.949 µM): 16%
viability, T/C (second compound 0.1 µM, first compound 3 µM): 12%
viability, T/C (second compound 0.316 µM, first compound 0.00949 µM): 95.8%
viability, T/C (second compound 0.316 µM, first compound 0.03 µM): 77.9%
viability, T/C (second compound 0.316 µM, first compound 0.0949 µM): 58.1%
viability, T/C (second compound 0.316 µM, first compound 0.3 µM): 31%
viability, T/C (second compound 0.316 µM, first compound 0.949 µM): 14.9%
viability, T/C (second compound 0.316 µM, first compound 3 µM): 9.51%
viability, T/C (second compound 1 µM, first compound 0.00949 µM): 78.1%
viability, T/C (second compound 1 µM, first compound 0.03 µM): 61.8%
viability, T/C (second compound 1 µM, first compound 0.0949 µM): 57.9%
viability, T/C (second compound 1 µM, first compound 0.3 µM): 30.6%
viability, T/C (second compound 1 µM, first compound 0.949 µM): 13%
viability, T/C (second compound 1 µM, first compound 3 µM): 9.8%
viability, T/C (second compound 3.16 µM, first compound 0.00949 µM): 79.2%
viability, T/C (second compound 3.16 µM, first compound 0.03 µM): 64%
viability, T/C (second compound 3.16 µM, first compound 0.0949 µM): 48.2%
viability, T/C (second compound 3.16 µM, first compound 0.3 µM): 26.4%
viability, T/C (second compound 3.16 µM, first compound 0.949 µM): 15.2%
viability, T/C (second compound 3.16 µM, first compound 3 µM): 8.58%
viability, T/C (second compound 10 µM, first compound 0.00949 µM): 59.8%
viability, T/C (second compound 10 µM, first compound 0.03 µM): 50.8%
viability, T/C (second compound 10 µM, first compound 0.0949 µM): 37.1%
viability, T/C (second compound 10 µM, first compound 0.3 µM): 29.1%
viability, T/C (second compound 10 µM, first compound 0.949 µM): 18%
viability, T/C (second compound 10 µM, first compound 3 µM): 9.82%

Now from value to compound, other results behind:

IC50 (second compound 0.1 µM): > 10 µM
IC50 (second compound 0.316 µM): > 10 µM
IC50 (second compound 1 µM): > 10 µM
IC50 (second compound 3.16 µM): > 10 µM
IC50 (second compound 10 µM): > 10 µM
Structure (SMILES): CC(C)c1c(-c2ccccc2)nc2c(C#N)c[nH]n2c1=O + Cc1ccccc1N=Nc1ccc(NC(=O)c2ccnn2C)c(C)c1
viability, T/C [1]: 86.5%
viability, T/C [2]: 86%
viability, T/C [3]: 91.9%
viability, T/C [4]: 88.7%
viability, T/C [5]: 89.8%
viability, T/C [6]: 96.5%
viability, T/C [7]: 79.3%
viability, T/C [8]: 85.2%
viability, T/C [9]: 86.1%
viability, T/C [10]: 81.2%
viability, T/C [11]: 94%
viability, T/C [12]: 85.9%
viability, T/C [13]: 84.2%
viability, T/C [14]: 86.2%
viability, T/C [15]: 80.8%
viability, T/C [16]: 87%
viability, T/C [17]: 83.6%
viability, T/C [18]: 81.8%
viability, T/C [19]: 78.6%
viability, T/C [20]: 72.3%
viability, T/C [21]: 78.8%
viability, T/C [22]: 76.8%
viability, T/C [23]: 74%
viability, T/C [24]: 65.8%
viability, T/C [25]: 58.1%
viability, T/C [26]: 61.2%
viability, T/C [27]: 58.6%
viability, T/C [28]: 63.9%
viability, T/C [29]: 65%
viability, T/C [30]: 50.3%

IC50 (second compound 0.1 µM): 0.0385 µM
IC50 (second compound 0.316 µM): 0.0439 µM
IC50 (second compound 1 µM): 0.0331 µM
IC50 (second compound 3.16 µM): 0.02 µM
IC50 (second compound 10 µM): 0.0132 µM
Structure (SMILES): CC1COCCN1c1cc(-c2ccnn2C)c2ccnc(-c3ccn[nH]3)c2n1 (stereo not given) + Cc1ccccc1N=Nc1ccc(NC(=O)c2ccnn2C)c(C)c1
viability, T/C (second compound 0.1 µM, first compound 0.00316 µM): 95.7%
viability, T/C (second compound 0.1 µM, first compound 0.01 µM): 86.6%
viability, T/C [1]: 54.5%
viability, T/C [2]: 26.6%
viability, T/C [3]: 18.5%
viability, T/C [4]: 15.5%
viability, T/C (second compound 0.316 µM, first compound 0.00316 µM): 90.8%
viability, T/C (second compound 0.316 µM, first compound 0.01 µM): 81.6%
viability, T/C [7]: 58.9%
viability, T/C [8]: 28.8%
viability, T/C [9]: 18%
viability, T/C [10]: 16.2%
viability, T/C (second compound 1 µM, first compound 0.00316 µM): 83.4%
viability, T/C (second compound 1 µM, first compound 0.01 µM): 74.3%
viability, T/C [13]: 51.8%
viability, T/C [14]: 25%
viability, T/C [15]: 19.3%
viability, T/C [16]: 15.7%
viability, T/C (second compound 3.16 µM, first compound 0.00316 µM): 79.2%
viability, T/C (second compound 3.16 µM, first compound 0.01 µM): 68.1%
viability, T/C [19]: 37.3%
viability, T/C [20]: 23.2%
viability, T/C [21]: 16.7%
viability, T/C [22]: 13.8%
viability, T/C (second compound 10 µM, first compound 0.00316 µM): 57.8%
viability, T/C (second compound 10 µM, first compound 0.01 µM): 57%
viability, T/C [25]: 29.8%
viability, T/C [26]: 25.1%
viability, T/C [27]: 19.2%
viability, T/C [28]: 15.8%

IC50 (second compound 0.1 µM): 1.95 µM
IC50 (second compound 0.316 µM): 1.93 µM
IC50 (second compound 1 µM): 1.65 µM
IC50 (second compound 3.16 µM): 1.32 µM
IC50 (second compound 10 µM): 0.529 µM
Structure (SMILES): COc1ccc([C@@H](O)c2cc(-c3ncnc4cc(N5CCOCC5)ccc34)c(F)cc2Cl)nn1 + Cc1ccccc1N=Nc1ccc(NC(=O)c2ccnn2C)c(C)c1
viability, T/C [1]: 89.1%
viability, T/C [2]: 81.5%
viability, T/C [3]: 81%
viability, T/C [4]: 56.2%
viability, T/C [5]: 44.9%
viability, T/C [6]: 27%
viability, T/C [7]: 90%
viability, T/C [8]: 80.9%
viability, T/C [9]: 79.2%
viability, T/C [10]: 59.7%
viability, T/C [11]: 42.1%
viability, T/C [12]: 24%
viability, T/C [13]: 76.5%
viability, T/C [14]: 81.6%
viability, T/C [15]: 71.6%
viability, T/C [16]: 55.8%
viability, T/C [17]: 41%
viability, T/C [18]: 22.4%
viability, T/C [19]: 70.7%
viability, T/C [20]: 68%
viability, T/C [21]: 66.6%
viability, T/C [22]: 52%
viability, T/C [23]: 38.5%
viability, T/C [24]: 21%
viability, T/C [25]: 57.4%
viability, T/C [26]: 54.6%
viability, T/C [27]: 53.7%
viability, T/C [28]: 46.8%
viability, T/C [29]: 34.9%
viability, T/C [30]: 20.4%
